Assay results reported in the NIST ThermoML archive (doi:10.1016/j.jct.2009.07.002).
± gives the expanded uncertainty stated by the source.

Experiment: isobaric coefficient of expansion
Conditions: Liquid, DSC with Pressure Shift

CCCCCN [1-pentanamine]
isobaric coefficient of expansion (278.15 K, 5000 kPa): 0.00109 ± 4.6e-05 1/K | isobaric coefficient of expansion (278.15 K, 10000 kPa): 0.00107 ± 4.5e-05 1/K | isobaric coefficient of expansion (278.15 K, 15000 kPa): 0.00105 ± 4.5e-05 1/K | isobaric coefficient of expansion (278.15 K, 20000 kPa): 0.00102 ± 4.3e-05 1/K | isobaric coefficient of expansion (278.15 K, 25000 kPa): 0.00101 ± 4.3e-05 1/K | isobaric coefficient of expansion (278.15 K, 30000 kPa): 0.000988 ± 4.2e-05 1/K | isobaric coefficient of expansion (278.15 K, 35000 kPa): 0.000969 ± 4.1e-05 1/K | isobaric coefficient of expansion (278.15 K, 40000 kPa): 0.000954 ± 4e-05 1/K | isobaric coefficient of expansion (278.15 K, 45000 kPa): 0.000938 ± 4e-05 1/K | isobaric coefficient of expansion (278.15 K, 50000 kPa): 0.000921 ± 3.9e-05 1/K | isobaric coefficient of expansion (278.15 K, 55000 kPa): 0.000895 ± 3.8e-05 1/K | isobaric coefficient of expansion (288.15 K, 5000 kPa): 0.00111 ± 4.7e-05 1/K | isobaric coefficient of expansion (288.15 K, 10000 kPa): 0.00108 ± 4.6e-05 1/K | isobaric coefficient of expansion (288.15 K, 15000 kPa): 0.00106 ± 4.5e-05 1/K | isobaric coefficient of expansion (288.15 K, 20000 kPa): 0.00104 ± 4.4e-05 1/K | isobaric coefficient of expansion (288.15 K, 25000 kPa): 0.00102 ± 4.3e-05 1/K | isobaric coefficient of expansion (288.15 K, 30000 kPa): 0.000994 ± 4.2e-05 1/K | isobaric coefficient of expansion (288.15 K, 35000 kPa): 0.000973 ± 4.1e-05 1/K | isobaric coefficient of expansion (288.15 K, 40000 kPa): 0.000958 ± 4.1e-05 1/K | isobaric coefficient of expansion (288.15 K, 45000 kPa): 0.000937 ± 4e-05 1/K | isobaric coefficient of expansion (288.15 K, 50000 kPa): 0.000925 ± 3.9e-05 1/K | isobaric coefficient of expansion (288.15 K, 55000 kPa): 0.0009 ± 3.8e-05 1/K | isobaric coefficient of expansion (298.15 K, 5000 kPa): 0.00112 ± 4.8e-05 1/K | isobaric coefficient of expansion (298.15 K, 10000 kPa): 0.00109 ± 4.6e-05 1/K | isobaric coefficient of expansion (298.15 K, 15000 kPa): 0.00107 ± 4.5e-05 1/K | isobaric coefficient of expansion (298.15 K, 20000 kPa): 0.00104 ± 4.4e-05 1/K | isobaric coefficient of expansion (298.15 K, 25000 kPa): 0.00102 ± 4.3e-05 1/K | isobaric coefficient of expansion (298.15 K, 30000 kPa): 0.001 ± 4.2e-05 1/K | isobaric coefficient of expansion (298.15 K, 35000 kPa): 0.000981 ± 4.2e-05 1/K | isobaric coefficient of expansion (298.15 K, 40000 kPa): 0.000966 ± 4.1e-05 1/K | isobaric coefficient of expansion (298.15 K, 45000 kPa): 0.000944 ± 4e-05 1/K | isobaric coefficient of expansion (298.15 K, 50000 kPa): 0.000927 ± 3.9e-05 1/K | isobaric coefficient of expansion (298.15 K, 55000 kPa): 0.000894 ± 3.8e-05 1/K | isobaric coefficient of expansion (308.15 K, 5000 kPa): 0.00114 ± 4.8e-05 1/K | isobaric coefficient of expansion (308.15 K, 10000 kPa): 0.00111 ± 4.7e-05 1/K | isobaric coefficient of expansion (308.15 K, 15000 kPa): 0.00108 ± 4.6e-05 1/K | isobaric coefficient of expansion (308.15 K, 20000 kPa): 0.00106 ± 4.5e-05 1/K | isobaric coefficient of expansion (308.15 K, 25000 kPa): 0.00103 ± 4.4e-05 1/K | isobaric coefficient of expansion (308.15 K, 30000 kPa): 0.00101 ± 4.3e-05 1/K | isobaric coefficient of expansion (308.15 K, 35000 kPa): 0.000988 ± 4.2e-05 1/K | isobaric coefficient of expansion (308.15 K, 40000 kPa): 0.000968 ± 4.1e-05 1/K | isobaric coefficient of expansion (308.15 K, 45000 kPa): 0.000949 ± 4e-05 1/K | isobaric coefficient of expansion (308.15 K, 50000 kPa): 0.000929 ± 3.9e-05 1/K | isobaric coefficient of expansion (308.15 K, 55000 kPa): 0.000898 ± 3.8e-05 1/K | isobaric coefficient of expansion (318.15 K, 5000 kPa): 0.00116 ± 4.9e-05 1/K | isobaric coefficient of expansion (318.15 K, 10000 kPa): 0.00112 ± 4.8e-05 1/K | isobaric coefficient of expansion (318.15 K, 15000 kPa): 0.00109 ± 4.6e-05 1/K | isobaric coefficient of expansion (318.15 K, 20000 kPa): 0.00106 ± 4.5e-05 1/K | isobaric coefficient of expansion (318.15 K, 25000 kPa): 0.00104 ± 4.4e-05 1/K | isobaric coefficient of expansion (318.15 K, 30000 kPa): 0.00101 ± 4.3e-05 1/K | isobaric coefficient of expansion (318.15 K, 35000 kPa): 0.000989 ± 4.2e-05 1/K | isobaric coefficient of expansion (318.15 K, 40000 kPa): 0.000967 ± 4.1e-05 1/K | isobaric coefficient of expansion (318.15 K, 45000 kPa): 0.000947 ± 4e-05 1/K | isobaric coefficient of expansion (318.15 K, 50000 kPa): 0.000928 ± 3.9e-05 1/K | isobaric coefficient of expansion (318.15 K, 55000 kPa): 0.000898 ± 3.8e-05 1/K | isobaric coefficient of expansion (328.15 K, 5000 kPa): 0.00118 ± 5e-05 1/K | isobaric coefficient of expansion (328.15 K, 10000 kPa): 0.00114 ± 4.8e-05 1/K | isobaric coefficient of expansion (328.15 K, 15000 kPa): 0.0011 ± 4.7e-05 1/K | isobaric coefficient of expansion (328.15 K, 20000 kPa): 0.00107 ± 4.5e-05 1/K | isobaric coefficient of expansion (328.15 K, 25000 kPa): 0.00104 ± 4.4e-05 1/K | isobaric coefficient of expansion (328.15 K, 30000 kPa): 0.00102 ± 4.3e-05 1/K | isobaric coefficient of expansion (328.15 K, 35000 kPa): 0.000989 ± 4.2e-05 1/K | isobaric coefficient of expansion (328.15 K, 40000 kPa): 0.000971 ± 4.1e-05 1/K | isobaric coefficient of expansion (328.15 K, 45000 kPa): 0.000949 ± 4e-05 1/K | isobaric coefficient of expansion (328.15 K, 50000 kPa): 0.000931 ± 4e-05 1/K | isobaric coefficient of expansion (328.15 K, 55000 kPa): 0.000898 ± 3.8e-05 1/K | isobaric coefficient of expansion (338.15 K, 5000 kPa): 0.0012 ± 5.1e-05 1/K | isobaric coefficient of expansion (338.15 K, 10000 kPa): 0.00116 ± 4.9e-05 1/K | isobaric coefficient of expansion (338.15 K, 15000 kPa): 0.00112 ± 4.7e-05 1/K | isobaric coefficient of expansion (338.15 K, 20000 kPa): 0.00108 ± 4.6e-05 1/K | isobaric coefficient of expansion (338.15 K, 25000 kPa): 0.00105 ± 4.5e-05 1/K | isobaric coefficient of expansion (338.15 K, 30000 kPa): 0.00102 ± 4.3e-05 1/K | isobaric coefficient of expansion (338.15 K, 35000 kPa): 0.000993 ± 4.2e-05 1/K | isobaric coefficient of expansion (338.15 K, 40000 kPa): 0.000972 ± 4.1e-05 1/K | isobaric coefficient of expansion (338.15 K, 45000 kPa): 0.000951 ± 4e-05 1/K | isobaric coefficient of expansion (338.15 K, 50000 kPa): 0.00093 ± 3.9e-05 1/K | isobaric coefficient of expansion (338.15 K, 55000 kPa): 0.000899 ± 3.8e-05 1/K | isobaric coefficient of expansion (348.15 K, 5000 kPa): 0.00123 ± 5.2e-05 1/K | isobaric coefficient of expansion (348.15 K, 10000 kPa): 0.00118 ± 5e-05 1/K | isobaric coefficient of expansion (348.15 K, 15000 kPa): 0.00113 ± 4.8e-05 1/K | isobaric coefficient of expansion (348.15 K, 20000 kPa): 0.0011 ± 4.6e-05 1/K | isobaric coefficient of expansion (348.15 K, 25000 kPa): 0.00106 ± 4.5e-05 1/K | isobaric coefficient of expansion (348.15 K, 30000 kPa): 0.00103 ± 4.4e-05 1/K | isobaric coefficient of expansion (348.15 K, 35000 kPa): 0.000999 ± 4.2e-05 1/K | isobaric coefficient of expansion (348.15 K, 40000 kPa): 0.000972 ± 4.1e-05 1/K | isobaric coefficient of expansion (348.15 K, 45000 kPa): 0.000954 ± 4e-05 1/K | isobaric coefficient of expansion (348.15 K, 50000 kPa): 0.00093 ± 3.9e-05 1/K | isobaric coefficient of expansion (348.15 K, 55000 kPa): 0.000891 ± 3.8e-05 1/K
